# Data from patent publication US20200261463A1, “TREATMENT OF CANCER USING ARYL DIHYDRO-2H-BENZO[B][1,4]OXAZINE SULFONAMIDE COMPOUNDS” (Lycera Corporation, priority 2017, published 2020).
# System: bladder cancer
# Experiment: Administration of Compound A to human patient suffering from bladder cancer (CT imaging)
# Assay type: in vivo
# Conditions: 450 mg orally two times per day for two months
compound,measurement,value
CC(C)(C[C@H]1CN(S(=O)(=O)c2cccc(C(F)(F)F)c2)c2cc(-c3cc(F)cc(OC(F)F)c3)ccc2O1)C(=O)O [Compound A],reduction in bladder cancer burden compared to burden at start of treatment,24%
